The results in this text go back to patent US12637461B2, “Compounds for the activation of AMPK” (PFIZER INC., priority 2022, dated 2026).

The EC50 is the midpoint of the concentration-response curve.

The test addresses T1, human AMPK α2β2γ3 (Homo sapiens, UniProt O43741+P54646+Q9UGI9).
T1 construct: expressed in transfected cells; host or cells: HEK293AD cells, MaxCyte bulk electroporation
The test is described as follows: Primary cellular assay: γ3 associated phospho-Thr172 AMPK detection (custom pAMPK Surefire AlphaLISA) in α2β2γ3 bulk transiently transfected HEK293 cells. In kind it is cell-based. The note with it: activation of human AMPK α2β2γ3 (γ3 pThr172 AMPK signal) in transiently transfected HEK293 cells, 20 minutes compound incubation; for Emax: 20 min, read-out: Assay GMean Asy. Max (%); for EC50: geometric mean EC50, read-out: Assay GMean EC50. The method in brief: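 Transiently co-transfected (α2/β2/γ3 plasmids, electroporation) HEK293AD cells, plated 2 days in low-glucose DMEM+10% FBS, treated 20 min with compounds (11-point half-log dilutions). Lysates read by modified AlphaLISA capturing γ3 with pThr172 antibody detection. % effect relative to 30 μM HPE and DMSO; EC50 and Emax from curve fit.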

[1] abbreviates: geometric mean of the asymptotic max.

T1 sequence (P54646 whole entry): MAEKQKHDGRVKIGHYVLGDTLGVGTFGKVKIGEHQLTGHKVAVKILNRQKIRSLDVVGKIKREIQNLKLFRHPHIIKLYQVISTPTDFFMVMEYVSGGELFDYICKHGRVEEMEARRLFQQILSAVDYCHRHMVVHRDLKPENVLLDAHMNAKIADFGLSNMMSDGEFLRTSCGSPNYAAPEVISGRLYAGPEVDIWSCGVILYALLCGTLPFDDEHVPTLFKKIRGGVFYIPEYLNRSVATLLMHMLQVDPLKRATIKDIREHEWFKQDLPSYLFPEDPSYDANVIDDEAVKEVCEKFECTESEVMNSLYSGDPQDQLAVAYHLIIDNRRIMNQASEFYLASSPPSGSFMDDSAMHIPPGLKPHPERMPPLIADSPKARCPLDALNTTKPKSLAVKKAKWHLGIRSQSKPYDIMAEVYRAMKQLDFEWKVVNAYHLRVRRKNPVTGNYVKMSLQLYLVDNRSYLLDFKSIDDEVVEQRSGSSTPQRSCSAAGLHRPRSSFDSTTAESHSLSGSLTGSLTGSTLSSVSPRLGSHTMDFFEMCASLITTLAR
T1 sequence (O43741 whole entry): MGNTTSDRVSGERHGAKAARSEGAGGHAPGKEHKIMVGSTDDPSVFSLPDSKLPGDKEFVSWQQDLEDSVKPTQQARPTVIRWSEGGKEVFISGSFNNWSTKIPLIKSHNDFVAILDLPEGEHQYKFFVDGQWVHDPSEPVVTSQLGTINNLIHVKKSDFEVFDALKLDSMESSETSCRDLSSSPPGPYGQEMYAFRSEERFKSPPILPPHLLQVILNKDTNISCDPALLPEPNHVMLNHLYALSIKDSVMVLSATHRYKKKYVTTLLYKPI
T1 sequence (Q9UGI9 whole entry): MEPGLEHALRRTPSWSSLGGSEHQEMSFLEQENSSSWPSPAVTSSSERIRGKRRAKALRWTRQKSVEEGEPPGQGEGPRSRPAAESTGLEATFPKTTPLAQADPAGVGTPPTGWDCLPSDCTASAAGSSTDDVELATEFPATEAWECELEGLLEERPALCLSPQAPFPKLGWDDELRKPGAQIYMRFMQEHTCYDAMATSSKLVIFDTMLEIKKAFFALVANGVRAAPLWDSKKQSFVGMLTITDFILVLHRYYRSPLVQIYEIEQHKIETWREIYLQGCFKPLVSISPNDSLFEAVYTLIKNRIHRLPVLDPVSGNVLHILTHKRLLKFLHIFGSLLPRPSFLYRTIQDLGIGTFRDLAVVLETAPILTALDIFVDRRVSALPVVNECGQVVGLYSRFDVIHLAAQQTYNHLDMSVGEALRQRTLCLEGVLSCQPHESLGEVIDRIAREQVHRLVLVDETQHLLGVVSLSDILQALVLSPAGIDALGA

Take `Cn1cc(F)c(N2C[C@](C)(c3cccc(Cl)c3F)c3c(cnc(NC4CN(C(=O)N5C[C@@H]6C[C@H]5CO6)C4)c3F)C2=O)n1` [Example 21, (4R)-4-(3-chloro-2-fluorophenyl)-5-fluoro-2-(4-fluoro-1-methyl-1H-pyrazol-3-yl)-4-methyl-6-({1-[(1S,4S)-2-oxa-5-azabicyclo[2.2.1]heptane-5-carbonyl]azetidin-3-yl}amino)-3,4-dihydro-2,7-naphthyridin-1(2H)-one]: the EC50 was 39.8 nM. In addition, the Emax under setting [1] was found to be 142%.
In the same order, the values of `C[C@]1(c2cccc(Cl)c2F)CN(c2ccc(CO)cn2)C(=O)c2cnc(NC3CN(C(=O)N4C[C@@H]5C[C@H]4CO5)C3)c(F)c21` [Example 22, (4R)-4-(3-Chloro-2-fluorophenyl)-5-fluoro-2-[5-(hydroxymethyl)pyridin-2-yl]-4-methyl-6-({1-[(1 S,4S)-2-oxa-5-azabicyclo[2.2.1]heptane-5-carbonyl]azetidin-3-yl}amino)-3,4-dihydro-2,7-naphthyridin-1(2H)-one] are 44.7 nM and 136%.
On the same counts, the results for `CC1(c2cccc(F)c2F)CN(c2ccccc2)C(=O)c2cnc(NC3CN(C(=O)CN4CCCC4)C3)nc21` (centres unmarked) [Example 33, 8-(2,3-Difluorophenyl)-8-methyl-6-phenyl-2-({1-[(pyrrolidin-1-γ1)acetyl]azetidin-3-yl}amino)-7,8-dihydropyrido[4,3-d]pyrimidin-5(6H)-one] are 906 nM and 104%.
For `Cn1cc(F)c(N2CC(C)(c3cccc(Cl)c3F)c3c(ccc(NC4CN(C5CCCNC5=O)C4)c3F)C2=O)n1` (centres unmarked) [Example 35, 4-(3-Chloro-2-fluorophenyl)-5-fluoro-2-(4-fluoro-1-methyl-1H-pyrazol-3-yl)-4-methyl-6-{[1-(2-oxopiperidin-3-γ1)azetidin-3-yl]amino}-3,4-dihydroisoquinolin-1(2H)-one], the EC50 stood at 27.2 nM. The “Assay GMean Asy. Max (%)” value under setting [1] was 119%.
Regarding `Cn1cc(F)c(N2CC(C)(c3cccc(Cl)c3F)c3c(ccc(NC4CN(C5CCCNC5=O)C4)c3F)C2=O)n1` (centres unmarked) [Example 36, 4-(3-Chloro-2-fluorophenyl)-5-fluoro-2-(4-fluoro-1-methyl-1H-pyrazol-3-yl)-4-methyl-6-{[1-(2-oxopiperidin-3-γ1)azetidin-3-yl]amino}-3,4-dihydroisoquinolin-1(2H)-one], the concentration for a half-maximal effect (EC50) came to 149 nM. Also, the Emax under setting [1] amounted to 96.5%.
On the same counts, the results for `C[C@]1(c2cccc(Cl)c2F)CN(c2n[nH]cc2F)C(=O)c2cnc(NC3CN(C(=O)[C@@H]4C[C@@H]4F)C3)c(F)c21` [Example 112, (4R)-4-(3-chloro-2-fluorophenyl)-5-fluoro-6-({1-[(1S,2S)-2-fluorocyclopropane-1-carbonyl]azetidin-3-yl}amino)-2-(4-fluoro-1H-pyrazol-3-yl)-4-methyl-3,4-dihydro-2,7-naphthyridin-1(2H)-one] are 899 nM and 72.1%.
On to `Cn1cc(F)c(N2C[C@](C)(c3cccc(Cl)c3F)c3c(cnc(NC4CN(C(=O)[C@@H]5CC5(F)F)C4)c3F)C2=O)n1` [compound 39, (4R)-4-(3-chloro-2-fluorophenyl)-6-({1-[(1S)-2,2-difluorocyclopropane-1-carbonyl]azetidin-3-yl}amino)-5-fluoro-2-(4-fluoro-1-methyl-1H-pyrazol-3-yl)-4-methyl-3,4-dihydro-2,7-naphthyridin-1(2H)-one], for which the concentration giving a half-maximal response (EC50) came out at 68.7 nM. Besides, the Emax under setting [1] is 91.2%.
On the same counts, the results for `C[C@@H](O)C(=O)N1CC(Nc2ncc3c(c2F)[C@@](C)(c2cccc(Cl)c2F)CN(c2nn(C)cc2F)C3=O)C1` [compound 40, (4R)-4-(3-chloro-2-fluorophenyl)-5-fluoro-2-(4-fluoro-1-methyl-1H-pyrazol-3-yl)-6-({1-[(2R)-2-hydroxypropanoyl]azetidin-3-yl}amino)-4-methyl-3,4-dihydro-2,7-naphthyridin-1(2H)-one] are 113 nM and 58.8%.
In the same order, the values of `CN(C)CC(=O)N1CC(Nc2ncc3c(c2F)[C@@](C)(c2cccc(Cl)c2F)CN(c2nn(C)cc2F)C3=O)C1` [compound 41, (4R)-4-(3-chloro-2-fluorophenyl)-6-({1-[(dimethylamino)acetyl]azetidin-3-yl}amino)-5-fluoro-2-(4-fluoro-1-methyl-1H-pyrazol-3-yl)-4-methyl-3,4-dihydro-2,7-naphthyridin-1(2H)-one] are 120 nM and 80.2%.
On the same counts, the results for `C[C@]1(c2cccc(Cl)c2F)CN(c2ccc(CCO)cn2)C(=O)c2cnc(NC3CN(C(=O)[C@@H]4C[C@@H]4F)C3)c(F)c21` [compound 48, (4R)-4-(3-chloro-2-fluorophenyl)-5-fluoro-6-({1-[(1S,2S)-2-fluorocyclopropane-1-carbonyl]azetidin-3-yl}amino)-2-[5-(2-hydroxyethyl)pyridin-2-yl]-4-methyl-3,4-dihydro-2,7-naphthyridin-1(2H)-one] are 110 nM and 71.4%.
With `C[C@H](O)c1ccc(N2C[C@](C)(c3cccc(Cl)c3F)c3c(cnc(NC4CN(C(=O)[C@@H]5C[C@@H]5F)C4)c3F)C2=O)nc1` [compound 49, (4R)-4-(3-chloro-2-fluorophenyl)-5-fluoro-6-({1-[(1S,2S)-2-fluorocyclopropane-1-carbonyl]azetidin-3-yl}amino)-2-{5-[(1S)-1-hydroxyethyl]pyridin-2-yl}-4-methyl-3,4-dihydro-2,7-naphthyridin-1(2H)-one], the EC50 worked out at 63.9 nM. Further, the Emax under setting [1] worked out at 77.3%.
Regarding `C[C@]1(c2cccc(Cl)c2F)CN(c2ccc(OC(F)F)cn2)C(=O)c2cnc(NC3CN(C(=O)[C@@H]4C[C@@H]4F)C3)c(F)c21` [compound 50, (4R)-4-(3-chloro-2-fluorophenyl)-2-[5-(difluoromethoxy)pyridin-2-yl]-5-fluoro-6-({1-[(1S,2S)-2-fluorocyclopropane-1-carbonyl]azetidin-3-yl}amino)-4-methyl-3,4-dihydro-2,7-naphthyridin-1(2H)-one], the EC50 was 233 nM. Further, under setting [1], the Emax is 63.7%.
On the same counts, the results for `CNc1ccc(N2C[C@](C)(c3cccc(Cl)c3F)c3c(cnc(NC4CN(C(=O)[C@@H]5C[C@@H]5F)C4)c3F)C2=O)nc1` [compound 51, (4R)-4-(3-chloro-2-fluorophenyl)-5-fluoro-6-({1-[(1S,2S)-2-fluorocyclopropane-1-carbonyl]azetidin-3-yl}amino)-4-methyl-2-[5-(methylamino)pyridin-2-yl]-3,4-dihydro-2,7-naphthyridin-1(2H)-one] are 49.1 nM and 63.2%.
In the same order, the values of `C[C@]1(c2cccc(Cl)c2F)CN(c2ccc(CO)cn2)C(=O)c2cnc(NC3CN(C(=O)[C@@H]4C[C@@H]4F)C3)c(F)c21` [compound 52, (4R)-4-(3-chloro-2-fluorophenyl)-5-fluoro-6-({1-[(1S,2S)-2-fluorocyclopropane-1-carbonyl]azetidin-3-yl}amino)-2-[5-(hydroxymethyl)pyridin-2-yl]-4-methyl-3,4-dihydro-2,7-naphthyridin-1(2H)-one] are 47.4 nM and 65.4%.
On the same counts, the results for `C[C@]1(c2cccc(Cl)c2F)CN(c2ccc([C@@H]3COCCN3)cc2)C(=O)c2cnc(NC3CN(C(=O)[C@@H]4C[C@@H]4F)C3)c(F)c21` [compound 53, (4R)-4-(3-chloro-2-fluorophenyl)-5-fluoro-6-({1-[(1S,2S)-2-fluorocyclopropane-1-carbonyl]azetidin-3-yl}amino)-4-methyl-2-{4-[(3R)-morpholin-3-yl]phenyl}-3,4-dihydro-2,7-naphthyridin-1(2H)-one] are 131 nM and 91%.
Regarding `Cn1ccc(N2C[C@](C)(c3cccc(Cl)c3F)c3c(cnc(NC4CN(C(=O)[C@@H]5C[C@@H]5F)C4)c3F)C2=O)n1` [compound 54, (4R)-4-(3-chloro-2-fluorophenyl)-5-fluoro-6-({1-[(1S,2S)-2-fluorocyclopropane-1-carbonyl]azetidin-3-yl}amino)-4-methyl-2-(1-methyl-1H-pyrazol-3-yl)-3,4-dihydro-2,7-naphthyridin-1(2H)-one], the EC50 turned out to be 58.1 nM. In addition, the Emax under setting [1] was 79.5%.
In the same order, the values of `C[C@]1(c2cccc(Cl)c2F)CN(c2cc(OC(F)F)ccn2)C(=O)c2cnc(NC3CN(C(=O)[C@@H]4C[C@@H]4F)C3)c(F)c21` [compound 55, (4R)-4-(3-chloro-2-fluorophenyl)-2-[4-(difluoromethoxy)pyridin-2-yl]-5-fluoro-6-({1-[(1S,2S)-2-fluorocyclopropane-1-carbonyl]azetidin-3-yl}amino)-4-methyl-3,4-dihydro-2,7-naphthyridin-1(2H)-one] are 24 nM and 30.9%.
In the same order, the values of `C[C@]1(c2cccc(Cl)c2F)CN(c2ccccc2F)C(=O)c2cnc(NC3CN(C(=O)[C@@H]4C[C@@H]4F)C3)c(F)c21` [compound 56, (4R)-4-(3-chloro-2-fluorophenyl)-5-fluoro-6-({1-[(1S,2S)-2-fluorocyclopropane-1-carbonyl]azetidin-3-yl}amino)-2-(2-fluorophenyl)-4-methyl-3,4-dihydro-2,7-naphthyridin-1(2H)-one] are 256 nM and 92.9%.
On the same counts, the results for `CC(C)(O)C(=O)N1CC(Nc2ncc3c(c2F)[C@@](C)(c2cccc(Cl)c2F)CN(c2ccc(CO)cn2)C3=O)C1` [compound 57, (4R)-4-(3-chloro-2-fluorophenyl)-5-fluoro-6-{[1-(2-hydroxy-2-methylpropanoyl)azetidin-3-yl]amino}-2-[5-(hydroxymethyl)pyridin-2-yl]-4-methyl-3,4-dihydro-2,7-naphthyridin-1(2H)-one] are 75 nM and 84.9%.
